Earlier results, collected in paper PMC4891657, “Orexin 2 Receptor Antagonism is Sufficient to Promote NREM and REM Sleep from Mouse to Man” (Scientific Reports, 2016).

Assays:
OX2R = system: OX2R; parameters: method as in PMID 24376396, PMID 24368893; settings: mice, 50 mg/kg ref 37, 38; cited from earlier work
OX2R relative to OX1R = settings: cited from earlier work

COc1ccnc(N2CCC3(CCCN(Cc4c[nH]c5ccccc45)C3=O)CC2)n1 [IPSU]
calculated OX2R occupancy achieved (OX2R): 48%
OX2R/OX1R selectivity (OX2R relative to OX1R): 6.2 fold

CC1(C)OC[C@H](NC(=O)Nc2ccc(Br)cc2Br)[C@H](c2ccccc2)O1 [JNJ-10397049]
OX2R selective (OX2R relative to OX1R): ~ 320 x

Cc1cc(C)nc(N2CC3CN(C(=O)c4c(F)cccc4-n4nccn4)CC3C2)n1 (centres unmarked) [JNJ-42847922]
binding selectivity for OX2R relative to OX1R (OX2R relative to OX1R): ~ 80 fold

Cc1cc(NC(=O)Nc2ccc(N(C)C)cc2)c2cc(F)cc(F)c2n1 [SB-408124]
OX1R selective (OX2R relative to OX1R): ~ 64 x
